# Assay results published in US10131652B2, “Pyrimidinyloxy benzene derivatives as herbicides” (E. I. DU PONT DE NEMOURS AND COMPANY, priority 2014, dated 2018).
# Like-named read-outs stand apart in the source and are kept apart here.
# Assays:
# Experiment in all cases: Test E pre-/postemergence plant response
# Format in all cases: in vivo
# [1] = system: winter barley (Hordeum vulgare); conditions: scale 0 to 100, read-out: Plant response rating, Barley, Winter; for plant injury at 16 g/ha: 16 g ai/ha; for plant injury at 31 g/ha: 31 g ai/ha; for plant injury at 62 g/ha: 62 g ai/ha; for plant injury at 125 g/ha: 125 g ai/ha
# How it was run: (§1)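 Pre-emergence: seeds sown in silt loam soil and sprayed with test chemicals in a non-phytotoxic solvent/surfactant mix. Post-emergence: plants at 2–18 cm (1- to 4-leaf stage) in peat/vermiculite medium treated with the same formulation. Visual rating versus controls after 7–21 days, 0 (no effect) to 100 (complete control).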
# [2] = system: galium (catchweed bedstraw, Galium aparine); conditions: scale 0 to 100, read-out: Plant response rating, Galium; for pest or weed control at 16 g/ha: 16 g ai/ha; for pest or weed control at 31 g/ha: 31 g ai/ha; for pest or weed control at 62 g/ha: 62 g ai/ha; for pest or weed control at 125 g/ha: 125 g ai/ha
# How it was run: as §1
# [3] = system: wild buckwheat (Polygonum convolvulus); conditions: Fallopia convolvulus, scale 0 to 100, read-out: Plant response rating, Buckwheat, Wild; for pest or weed control at 16 g/ha: 16 g ai/ha; for pest or weed control at 31 g/ha: 31 g ai/ha; for pest or weed control at 62 g/ha: 62 g ai/ha; for pest or weed control at 125 g/ha: 125 g ai/ha
# How it was run: as §1
# [4] = system: downy bromegrass (Bromus tectorum); conditions: scale 0 to 100, read-out: Plant response rating, Bromegrass, Downy; for pest or weed control at 16 g/ha: 16 g ai/ha; for pest or weed control at 31 g/ha: 31 g ai/ha; for pest or weed control at 62 g/ha: 62 g ai/ha; for pest or weed control at 125 g/ha: 125 g ai/ha
# How it was run: as §1
# [5] = system: bluegrass (annual bluegrass, Poa annua); conditions: scale 0 to 100, read-out: Plant response rating, Bluegrass; for pest or weed control at 16 g/ha: 16 g ai/ha; for pest or weed control at 31 g/ha: 31 g ai/ha; for pest or weed control at 62 g/ha: 62 g ai/ha; for pest or weed control at 125 g/ha: 125 g ai/ha
# How it was run: as §1
# [6] = system: wild radish (Raphanus raphanistrum); conditions: scale 0 to 100, read-out: Plant response rating, Radish, Wild; for pest or weed control at 16 g/ha: 16 g ai/ha; for pest or weed control at 31 g/ha: 31 g ai/ha; for pest or weed control at 62 g/ha: 62 g ai/ha; for pest or weed control at 125 g/ha: 125 g ai/ha
# How it was run: as §1
# kochia (Kochia scoparia) = conditions: Bassia scoparia, scale 0 to 100, read-out: Plant response rating, Kochia; for pest or weed control at 16 g/ha: 16 g ai/ha; for pest or weed control at 31 g/ha: 31 g ai/ha; for pest or weed control at 62 g/ha: 62 g ai/ha; for pest or weed control at 125 g/ha: 125 g ai/ha
# How it was run: as §1
# [7] = system: Italian ryegrass (Lolium multiflorum); conditions: scale 0 to 100, read-out: Plant response rating, Ryegrass, Italian; for pest or weed control at 16 g/ha: 16 g ai/ha; for pest or weed control at 31 g/ha: 31 g ai/ha; for pest or weed control at 62 g/ha: 62 g ai/ha; for pest or weed control at 125 g/ha: 125 g ai/ha
# How it was run: as §1
# [8] = system: windgrass (Apera spica-venti); conditions: scale 0 to 100, read-out: Plant response rating, Windgrass; for pest or weed control at 16 g/ha: 16 g ai/ha; for pest or weed control at 62 g/ha: 62 g ai/ha; for pest or weed control at 125 g/ha: 125 g ai/ha
# How it was run: as §1
# [9] = system: chickweed (common chickweed, Stellaria media); conditions: scale 0 to 100, read-out: Plant response rating, Chickweed; for pest or weed control at 16 g/ha: 16 g ai/ha; for pest or weed control at 31 g/ha: 31 g ai/ha; for pest or weed control at 62 g/ha: 62 g ai/ha; for pest or weed control at 125 g/ha: 125 g ai/ha
# How it was run: as §1
# [10] = system: oilseed rape (Brassica napus); conditions: scale 0 to 100, read-out: Plant response rating, Oilseed Rape; for plant injury at 16 g/ha: 16 g ai/ha; for plant injury at 31 g/ha: 31 g ai/ha; for plant injury at 62 g/ha: 62 g ai/ha; for plant injury at 125 g/ha: 125 g ai/ha
# How it was run: as §1
smiles,measurement,setting,value
"Fc1cccc(Oc2ncc(Cl)cn2)c1-c1cc(C(F)(F)F)on1 [Compound 168, 5-chloro-2-[2-[5-(trifluoromethyl)-3-isoxazolyl]-3-fluorophenoxy]pyrimidine]",plant injury at 16 g/ha,"[1]; post-emergence, Postemergence",5%
same,plant injury at 31 g/ha,"[1]; post-emergence, Postemergence",10%
same,plant injury at 62 g/ha,"[1]; post-emergence, Postemergence",10%
same,plant injury at 125 g/ha,"[1]; post-emergence, Postemergence",15%
same,plant injury at 16 g/ha,"[1]; pre-emergence, Preemergence",0%
same,plant injury at 31 g/ha,"[1]; pre-emergence, Preemergence",5%
same,plant injury at 62 g/ha,"[1]; pre-emergence, Preemergence",25%
same,plant injury at 125 g/ha,"[1]; pre-emergence, Preemergence",40%
same,pest or weed control at 16 g/ha,"[2]; post-emergence, Postemergence",75%
same,pest or weed control at 31 g/ha,"[2]; post-emergence, Postemergence",75%
same,pest or weed control at 62 g/ha,"[2]; post-emergence, Postemergence",80%
same,pest or weed control at 125 g/ha,"[2]; post-emergence, Postemergence",85%
same,pest or weed control at 16 g/ha,"[2]; pre-emergence, Preemergence",60%
same,pest or weed control at 31 g/ha,"[2]; pre-emergence, Preemergence",60%
same,pest or weed control at 62 g/ha,"[2]; pre-emergence, Preemergence",100%
same,pest or weed control at 125 g/ha,"[2]; pre-emergence, Preemergence",100%
same,pest or weed control at 16 g/ha,"[3]; post-emergence, Postemergence",65%
same,pest or weed control at 31 g/ha,"[3]; post-emergence, Postemergence",95%
same,pest or weed control at 62 g/ha,"[3]; post-emergence, Postemergence",95%
same,pest or weed control at 125 g/ha,"[3]; post-emergence, Postemergence",100%
same,pest or weed control at 16 g/ha,"[3]; pre-emergence, Preemergence",0%
same,pest or weed control at 31 g/ha,"[3]; pre-emergence, Preemergence",65%
same,pest or weed control at 62 g/ha,"[3]; pre-emergence, Preemergence",100%
same,pest or weed control at 125 g/ha,"[3]; pre-emergence, Preemergence",100%
same,pest or weed control at 16 g/ha,"[4]; post-emergence, Postemergence",5%
same,pest or weed control at 31 g/ha,"[4]; post-emergence, Postemergence",15%
same,pest or weed control at 62 g/ha,"[4]; post-emergence, Postemergence",25%
same,pest or weed control at 125 g/ha,"[4]; post-emergence, Postemergence",35%
same,pest or weed control at 16 g/ha,"[4]; pre-emergence, Preemergence",0%
same,pest or weed control at 31 g/ha,"[4]; pre-emergence, Preemergence",10%
same,pest or weed control at 62 g/ha,"[4]; pre-emergence, Preemergence",10%
same,pest or weed control at 125 g/ha,"[4]; pre-emergence, Preemergence",40%
same,pest or weed control at 16 g/ha,"[5]; post-emergence, Postemergence",10%
same,pest or weed control at 31 g/ha,"[5]; post-emergence, Postemergence",5%
same,pest or weed control at 62 g/ha,"[5]; post-emergence, Postemergence",10%
same,pest or weed control at 125 g/ha,"[5]; post-emergence, Postemergence",15%
same,pest or weed control at 16 g/ha,"[5]; pre-emergence, Preemergence",0%
same,pest or weed control at 31 g/ha,"[5]; pre-emergence, Preemergence",10%
same,pest or weed control at 62 g/ha,"[5]; pre-emergence, Preemergence",80%
same,pest or weed control at 125 g/ha,"[5]; pre-emergence, Preemergence",100%
same,pest or weed control at 16 g/ha,"[6]; post-emergence, Postemergence",70%
same,pest or weed control at 31 g/ha,"[6]; post-emergence, Postemergence",75%
same,pest or weed control at 62 g/ha,"[6]; post-emergence, Postemergence",80%
same,pest or weed control at 125 g/ha,"[6]; post-emergence, Postemergence",85%
same,pest or weed control at 16 g/ha,"[6]; pre-emergence, Preemergence",0%
same,pest or weed control at 31 g/ha,"[6]; pre-emergence, Preemergence",45%
same,pest or weed control at 62 g/ha,"[6]; pre-emergence, Preemergence",100%
same,pest or weed control at 125 g/ha,"[6]; pre-emergence, Preemergence",100%
same,pest or weed control at 16 g/ha,"kochia (Kochia scoparia); post-emergence, Postemergence",80%
same,pest or weed control at 31 g/ha,"kochia (Kochia scoparia); post-emergence, Postemergence",80%
same,pest or weed control at 62 g/ha,"kochia (Kochia scoparia); post-emergence, Postemergence",85%
same,pest or weed control at 125 g/ha,"kochia (Kochia scoparia); post-emergence, Postemergence",85%
same,pest or weed control at 16 g/ha,"kochia (Kochia scoparia); pre-emergence, Preemergence",35%
same,pest or weed control at 31 g/ha,"kochia (Kochia scoparia); pre-emergence, Preemergence",100%
same,pest or weed control at 62 g/ha,"kochia (Kochia scoparia); pre-emergence, Preemergence",100%
same,pest or weed control at 125 g/ha,"kochia (Kochia scoparia); pre-emergence, Preemergence",100%
same,pest or weed control at 16 g/ha,"[7]; post-emergence, Postemergence",5%
same,pest or weed control at 31 g/ha,"[7]; post-emergence, Postemergence",10%
same,pest or weed control at 62 g/ha,"[7]; post-emergence, Postemergence",20%
same,pest or weed control at 125 g/ha,"[7]; post-emergence, Postemergence",25%
same,pest or weed control at 16 g/ha,"[7]; pre-emergence, Preemergence",0%
same,pest or weed control at 31 g/ha,"[7]; pre-emergence, Preemergence",0%
same,pest or weed control at 62 g/ha,"[7]; pre-emergence, Preemergence",30%
same,pest or weed control at 125 g/ha,"[7]; pre-emergence, Preemergence",75%
same,pest or weed control at 16 g/ha,"[8]; post-emergence, Postemergence",10%
same,pest or weed control at 31 g/ha,"[8]; post-emergence, 31 g ai/ha, Postemergence",15%
same,pest or weed control at 62 g/ha,"[8]; post-emergence, Postemergence",25%
same,pest or weed control at 125 g/ha,"[8]; post-emergence, Postemergence",40%
same,pest or weed control at 16 g/ha,"[8]; pre-emergence, Preemergence",0%
same,pest or weed control at 62 g/ha,"[8]; pre-emergence, Preemergence",100%
same,pest or weed control at 125 g/ha,"[8]; pre-emergence, Preemergence",100%
same,pest or weed control at 16 g/ha,"[9]; post-emergence, Postemergence",50%
same,pest or weed control at 31 g/ha,"[9]; post-emergence, Postemergence",45%
same,pest or weed control at 62 g/ha,"[9]; post-emergence, Postemergence",70%
same,pest or weed control at 125 g/ha,"[9]; post-emergence, Postemergence",90%
same,pest or weed control at 16 g/ha,"[9]; pre-emergence, Preemergence",100%
same,pest or weed control at 31 g/ha,"[9]; pre-emergence, Preemergence",80%
same,pest or weed control at 62 g/ha,"[9]; pre-emergence, Preemergence",100%
same,pest or weed control at 125 g/ha,"[9]; pre-emergence, Preemergence",100%
same,plant injury at 16 g/ha,"[10]; post-emergence, Postemergence",70%
same,plant injury at 31 g/ha,"[10]; post-emergence, Postemergence",85%
same,plant injury at 62 g/ha,"[10]; post-emergence, Postemergence",95%
same,plant injury at 125 g/ha,"[10]; post-emergence, Postemergence",100%
same,plant injury at 16 g/ha,"[10]; pre-emergence, Preemergence",10%
same,plant injury at 31 g/ha,"[10]; pre-emergence, Preemergence",40%
same,plant injury at 62 g/ha,"[10]; pre-emergence, Preemergence",65%
same,plant injury at 125 g/ha,"[10]; pre-emergence, Preemergence",100%
